Results: PMC9319179, “Heterologous Expression and Characterization of Plant Wax Ester Producing Enzymes” (Metabolites, 2022)

Tests used:
[1] = molecular target: T1, maize WS (NP_001147171.1) (Zea mays, UniProt B6SLT2); assay: in vivo feeding of expressing yeast, ethyl/benzyl esters by GC-MS; type: cell-based; settings: S. cerevisiae H1246; fed fatty acids (14:1 preferred acyl), 20 °C; acyl donor formed in vivo
T1 construct: full-length ORF, C-terminal His6 tag, yeast codon-optimized synthetic ORF, expressed in S. cerevisiae H1246
T1 sequence (B6SLT2 1-345): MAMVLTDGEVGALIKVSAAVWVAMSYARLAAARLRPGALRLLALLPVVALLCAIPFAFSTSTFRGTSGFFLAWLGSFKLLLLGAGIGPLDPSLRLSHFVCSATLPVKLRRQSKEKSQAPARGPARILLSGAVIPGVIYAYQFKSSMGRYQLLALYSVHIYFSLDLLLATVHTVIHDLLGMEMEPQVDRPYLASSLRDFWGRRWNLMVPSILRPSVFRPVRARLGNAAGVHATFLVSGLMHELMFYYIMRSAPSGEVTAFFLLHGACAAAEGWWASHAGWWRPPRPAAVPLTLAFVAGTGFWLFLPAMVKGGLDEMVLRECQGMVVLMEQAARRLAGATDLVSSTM

[2] = molecular target: T2, Arabidopsis At5g55340 WS (Arabidopsis thaliana, UniProt Q9FJ76); assay: in vivo feeding of expressing yeast, wax esters by TLC and GC-MS; type: cell-based; settings: S. cerevisiae H1246; 50 uM alcohol with fed fatty acid (13:0 preferred), 20 °C; acyl donor formed in vivo
T2 construct: gene AT5
T2 sequence (Q9FJ76 1-333): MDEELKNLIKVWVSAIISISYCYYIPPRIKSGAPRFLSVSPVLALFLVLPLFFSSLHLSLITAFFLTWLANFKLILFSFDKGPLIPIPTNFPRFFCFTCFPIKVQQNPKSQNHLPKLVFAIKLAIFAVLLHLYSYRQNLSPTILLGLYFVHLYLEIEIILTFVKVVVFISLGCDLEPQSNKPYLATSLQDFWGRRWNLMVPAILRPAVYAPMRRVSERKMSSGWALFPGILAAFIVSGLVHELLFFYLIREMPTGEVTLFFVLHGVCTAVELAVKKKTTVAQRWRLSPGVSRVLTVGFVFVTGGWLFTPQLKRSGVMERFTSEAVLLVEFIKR

`CCO` [ethanol] was tested, and the “in vivo feeding of expressing yeast, ethyl/benzyl esters by GC-MS” value [1] was “ability to assemble esters with ethanol, benzyl alcohol, and phenylethyl alcohol”.

With `OCc1ccccc1` [benzyl alcohol] the “in vivo feeding of expressing yeast, ethyl/benzyl esters by GC-MS” value [1] was “ability to assemble esters with ethanol, benzyl alcohol, and phenylethyl alcohol”.

For `CCCCCCCCCCCCCO` [C13:0, C13:0 fatty alcohol], the “in vivo feeding of expressing yeast, wax esters by TLC and GC-MS” value [2] was “apparent optimum at 13-carbon chain length for both the fatty acid and fatty alcohol”.
